Results reported in US7815950B2, “Ketomethionine ketals and derivatives thereof” (Evonik Degussa GmbH, priority 2006, dated 2010).
Where two headings read alike, the source gives them in different places.

How the values were obtained:
[1] = ruminants; published in WO 00/28835; cited from earlier work
[2] = HMBi applied to a porous support; compared with WO 00/28835; EP 1358805; cited from earlier work
[3] = European Commission report, 25 Apr. 2003; cited from earlier work
[4] = in vivo; cited from earlier work
[5] = feeding experiments with rodents and poultry; compared with MHA; cited from earlier work

Q: For `CSCCC(N)C(=O)OC(C)(C)C` (racemic) [D,L-tert-butylmethionine, reference compound], which biological value [1] is on record?
A: 80%

Q: Which melting point does the source give for `CSCCC1(O)OCC(C)(C)COC1=O` (racemic) [Example 4, rac-4,4-dimethyl-7-hydroxy-7-(2-(methylthio)ethyl)-6-oxacaprolactone] here?
A: 109 °C

Q: With `CSCCC1(C(=O)O)OCCO1` [Example 2, 2-(2-(methylthio)ethyl)-1,3-dioxolane-2-carboxylic acid] as the compound, how does the melting point read?
A: 74 °C

Q: For `CSCCC12OCC(CO1)OC2=O` [Example 5, 4-(2-(methylthio)ethyl)-2,5,8-trioxabicyclo[2.2.2]octan-3-one], which melting point is on record?
A: 39.5 °C

Q: Which biological value [1] does the source give for `CSCCC(O)C(=O)OC(C)C` (stereo not drawn) [HMBi] here?
A: at least 50%

Q: And the biological value [2]?
A: comparable biological value

Q: And the “absorbed via the rumen wall” value [3]?
A: approximately 50%

Q: Which “supplemented MHA that, after absorption in the small intestine, can pass into metabolism” value [4] does the source give for `CSCCC(O)C(=O)O` (stereo not drawn) [MHA, hydroxymethylthiobutyric acid] here?
A: 20-40%

Q: For `CSCCC(=O)C(=O)[O-].[Na+]` [sodium salt of α-ketomethionine], which biological value [5] is on record?
A: significantly above that of MHA
